Assay results: PMC10226041, “Discovery of Ruthenium(II) Metallocompound and Olaparib Synergy for Cancer Combination Therapy” (Journal of Medicinal Chemistry, 2023)
Where a name gives a salt, the structure may show the parent alone. Blank lines part the entries; values can stand above or below the compound they belong to.

Legend:
[1] = tested on: MDA-MB-231 cells; experiment: MTT cell viability assay, MDA-MB-231 cells; type: cell-based, human; details: for IC50 / fold shift = IC50 (−OLAP)/IC50 (+OLAP): MDA-MB-231, 72 h; for IC50: MTT, read-out: IC50, –OLAP (compound alone); for fold shift = IC50 (−OLAP)/IC50 (+OLAP): Olaparib 10 μM
Protocol: (§1) Following treatment, solutions were removed, thiazolyl blue tetrazolium bromide (MTT, 0.5 mg/mL) reagent was added to the cells, and plates were incubated for 4 h. The reduced purple formazan crystals were solubilized with 100 μL of DMSO, and the absorbance at 570 nm (620 nm as reference wavelength) was measured using a microplate reader. The average in percent reduction of cell viability was expressed relative to untreated control cells. The combinatorial effect was evaluated by the generation of the compound dose–response curve and a shift of the IC50 value in the presence or absence of Olaparib (graphed and calculated using GraphPad Prism software).

[2] = tested on: MDA-MB-231R cells; experiment: Clonogenic survival assay, Olaparib-resistant MDA-MB-231R cells; type: cell-based, human
Protocol: The Olaparib-resistant MDA-MB-231 cell line (MDA-MB-231R) was developed from the parental MDA-MB-231 cell line by long-term drug exposure (∼8 months, 10–100 μM Olaparib) in a similar manner described by Kim et al.[45] MDA-MB-231 cells were seeded at a density of 1.5 × 10^5 cells in a 25 cm^2 flask and allowed to adhere for 24 h. Cells were treated with a starting Olaparib concentration of 10 μM, and treatments were refreshed every 3 days. After each week, the confluency was assessed: if confluency is <50%, the treatment was stopped; if confluency is at 50–70%, the treatment was maintained; and if confluency is over 70%, a portion of the cells was frozen. When the cells adapted to a new drug concentration, cells were reseeded at a density of 1.5 × 10^5 cells in a new 25 cm^2 flask and allowed to adhere before the next exposure to the increased concentration of Olaparib. This procedure was repeated to achieve a final concentration of Olaparib of 100 μM. Following this, MDA-MB-231R cells were maintained in a low concentration of Olaparib (10 μM) to preserve resistance. […]
Cells were seeded at 1 × 10^3 cells/well in 6-well plates, allowed to adhere for 24 h, and treated as described in the main text. […] Individual colonies were counted using ImageJ software, and the survival fraction was determined (normalized to controls).

[3] = tested on: MDA-MB-231 cells; experiment: Clonogenic survival assay, MDA-MB-231 cells; type: cell-based; details: Homo sapiens; MDA-MB-231, clonogenic, 72 h treatment; read-out: IC50 values of OLAP, – Compound
Protocol: (§2) Cells were seeded at 1 × 10^3 cells/well in 6-well plates, allowed to adhere for 24 h, and treated as described in the main text. After treatment, solutions were removed, and cells were cultured in compound-free medium for 7–10 days to allow colony formation. Cells were then washed (1× PBS, twice), fixed (ice-cold 100% methanol, 15–20 min, 4 °C), and stained (0.5% crystal violet solution, 20 min). The staining solution was washed with water, and images were photographed with a digital camera. Individual colonies were counted using ImageJ software, and the survival fraction was determined (normalized to controls).

[4] = tested on: wild-type zebrafish (Danio rerio) embryos; details: in vivo
Protocol: Wild-type zebrafish embryos were obtained from breeding facilities at Danio Assay Laboratories Sdn.Bhd. (Universiti Putra Malaysia). […] Danio-SprintM embryo media were used as a control. Survival and hatching rates were observed under a microscope attached with a digital camera and imaged at 24, 48, 72, and 96 hpf. […] Four lethal endpoints were evaluated including coagulated embryos, lack of somite formation, non-detachment of the tail, and lack of heartbeat. All these characteristics were recorded every 24 hpf, except the heartbeat, which is visible after 48 hpf.

[5] = tested on: MDA-MB-231 cells; details: 72 h, 10 µM
Protocol: Cells were seeded at 3 × 10^5 cells/well in 6-well plates, allowed to adhere for 24 h, and treated as described in the main text. After treatment, cells were trypsinized and washed with 1× PBS twice. This was followed by the addition of 500 μL of 1× binding buffer and 5 μL of Annexin V-FITC (Invitrogen). The cell-containing mixture was incubated for 20 min at RT. A total of 5 μL of PI (20 μg/mL) was added prior to flow cytometric analysis using a flow cytometer, and results were analyzed using NovoExpress software. For each sample, a minimum of 10,000 cells were counted.

[6] = tested on: MCF7 cells; experiment: Clonogenic survival assay, MCF7 cells; type: cell-based; details: Homo sapiens, 72 h treatment, read-out: IC50 values of OLAP, – Compound
Protocol: as §2

[7] = tested on: MCF7 cells; experiment: MTT cell viability assay, MCF7 cells; type: cell-based, human; details: for IC50: Homo sapiens, MCF7, 72 h, MTT, single agent, read-out: IC50 MCF7, –OLAP (single agent)
Protocol: as §1, with “Cells were seeded at 5 × 10^3 cells/well for MCF7 cells and 1 × 10^4 cells/well for MDA-MB-231 and MCF10A cells, respectively, in 96-well plates, allowed to adhere for 24 h, and treated as described in the main text. Following” for “Following”

[8] = tested on: MCF10A cells; experiment: MTT cell viability assay, MCF10A normal breast cells; type: cell-based; details: Homo sapiens, MCF-10A, 72 h, single agent, read-out: IC50 MCF10A, –OLAP (single agent)
Protocol: as §1, with “Cells were seeded at 5 × 10^3 cells/well for MCF7 cells and 1 × 10^4 cells/well for MDA-MB-231 and MCF10A cells, respectively, in 96-well plates, allowed to adhere for 24 h, and treated as described in the main text. Following” for “Following”

[9] = octanol/water partition coefficient; source not given; cited from earlier work
[10] = tested on: MDA-MB-231 cells; experiment: Drug interaction analysis (Chou and Talalay combination index) with Olaparib from MTT data; type: cell-based, human; details: MDA-MB-231, Olaparib 10 μM, result in words
Protocol: as §1
Dose–effect curves for single agents and their combinations were generated from the MTT assay data, and the combination index (CI) values were calculated using CalcuSyn and CompuSyn software (Biosoft, Cambridge, UK) as established by Chou and Talalay.[43] CI < 0.9 indicates synergism, CI = 0.9–1.0 indicates additive, and CI > 1 indicates antagonism. GraphPad Prism Software was used to generate a 3-color scale based on CI values obtained, where synergism is represented by green, additive by yellow, and antagonism by red. The colors of each CI value were interpolated in between these constraints accordingly.

[11] = tested on: MDA-MB-231 3D tumor spheroids; experiment: Spheroid growth inhibition, MDA-MB-231 spheroids; type: cell-based, human; details: compound 1 μM in combination with Olaparib 10 μM
Protocol: (§3) Spheroids were grown as described initially. […] Spheroids were treated with the identified combinations and single drugs alone for 72 h. Every other day thereafter, 50% of the treatment-containing medium was replaced. Spheroids were imaged every three days for a period of 12 days using a microscope attached to a digital camera. The structural integrity of spheroids following treatments was observed, and the volume was measured as initially described.

[12] = tested on: MCF7 3D tumor spheroids; experiment: Spheroid growth inhibition, MCF7 spheroids; type: cell-based, human; details: compound 1 μM in combination with Olaparib 10 μM
Protocol: as §3

[13] = tested on: TNBC and lung cancer cells; parameters: method as in PMID 31898884, PMID 36702871; details: sub-cytotoxic concentrations of Ru-PIP; cited from earlier work

SMILES: Cc1cc(C)c2nc3c4ccc[n+]5c4c4c(ccc[n+]4[Ru-4]546([n+]5ccccc5-c5cccc[n+]54)[n+]4ccccc4-c4cccc[n+]46)c3nc2c1 [Compound 5, [Ru(bpy)2(dmdppz)]^2+]
IC50 ([1]; single agent): 75.1 ± 12.2 µM
fold shift = IC50 (−OLAP)/IC50 (+OLAP) [1]: <0.8

SMILES: O=C(c1cc(Cc2n[nH]c(=O)c3ccccc23)ccc1F)N1CCN(C(=O)C2CC2)CC1 [Olaparib]
level of resistance of MDA-MB-231R compared to parental MDA-MB-231 cells ([2]; clonogenic survival assay): 28 fold
IC50 [3]: > 10 µM
pericardial edema (PE) ([4]; 96 hpf, 25 mg/L): 45.8% ± 17.7
spinal deformity (SD) ([4]; 96 hpf, 25 mg/L): 75.0% ± 23.6
yolk sac edema (YSE) ([4]; 96 hpf, 25 mg/L): 45.8% ± 29.5
percentage of cells in quadrant Q3-1 [5]: 0.34%
percentage of cells in quadrant Q3-2 (apoptotic) [5]: 1.44%
percentage of cells in quadrant Q3-3 [5]: 82.66%
percentage of cells in quadrant Q3-4 (apoptotic) [5]: 15.56%
IC50 ([1]; Homo sapiens, single agent): 80.9 ± 15 µM
SI MDA-MB-231 (IC50 MCF10A/IC50 cancer cell line), single agent ([1]; single agent, 72 h): >1.2
IC50 [6]: 2720 ± 450 nM
SI MCF7 (IC50 MCF10A/IC50 cancer cell line), single agent ([7]; 72 h): >1.4
IC50 [7]: 69.6 ± 6.3 µM
IC50 [8]: > 100 µM

SMILES: Cc1cc[n+]2c(c1)-c1cc(C)cc[n+]1[Ru-4]213([n+]2ccc(C)cc2-c2cc(C)cc[n+]21)[n+]1cccc2c4nc5cc(C)cc(C)c5nc4c4ccc[n+]3c4c21 [Compound 7, [Ru(4,4′dmb)2(dmdppz)]^2+]
IC50 ([1]; single agent): 34.3 ± 0.5 µM
fold shift = IC50 (−OLAP)/IC50 (+OLAP) [1]: 2.3
Synergy with Olaparib (CI scores of less than 0.9 considered synergistic) [10]: additive relationship with Olaparib

SMILES: N.N.[Cl][Pt][Cl] [cisplatin, reference compound]
IC50 ([1]; single agent): 35.3 ± 5.5 µM

SMILES: Cc1nc2c(O)cccc2c(=O)[nH]1 [NU1025]
Log P [9]: 0.47

SMILES: Nc1ccn([C@@H]2O[C@H](CO)[C@@H](O)C2(F)F)c(=O)n1 [gemcitabine hydrochloride, reference compound]
IC50 ([1]; Homo sapiens, single agent): 1.6 ± 0.8 µM
fold shift = IC50 (−OLAP)/IC50 (+OLAP) [1]: 2.7

SMILES: Cc1cc(C)c2nc3c4ccc[n+]5c4c4c(ccc[n+]4[Ru-4]546([n+]5cc(C)ccc5-c5ccc(C)c[n+]54)[n+]4cc(C)ccc4-c4ccc(C)c[n+]46)c3nc2c1 [Compound 6, [Ru(5,5′dmb)2(dmdppz)]^2+]
IC50 ([1]; single agent): 87.4 ± 2.3 µM
fold shift = IC50 (−OLAP)/IC50 (+OLAP) [1]: 5.0

SMILES: [Ru+2].c1ccc(-c2nc3c4cccnc4c4ncccc4c3[nH]2)cc1.c1ccc2nc3c4cccnc4c4ncccc4c3nc2c1.c1ccc2nc3c4cccnc4c4ncccc4c3nc2c1 [Ru-PIP, [Ru(dppz)2(PIP)]^2+]
increase in Olaparib potency [13]: > 300 fold

The next lines start with results.

IC50 ([1]; Homo sapiens, single agent): 4.4 ± 0.4 µM
fold shift = IC50 (−OLAP)/IC50 (+OLAP) [1]: 0.9
SMILES: C[C@@H]1COCCN1c1cc(C2([S@](C)(=N)=O)CC2)nc(-c2cc[nH]c3nccc2-3)n1 [Ceralasertib, reference compound]
Log P [9]: 1.91

IC50 ([1]; single agent): > 100 µM
fold shift = IC50 (−OLAP)/IC50 (+OLAP) [1]: >1.3
SMILES: [Ru+2].c1ccc(-c2ccccn2)nc1.c1ccc(-c2ccccn2)nc1.c1ccc(-c2nc3c4cccnc4c4ncccc4c3[nH]2)cc1 [Compound 1, [Ru(bpy)2(PIP)]^2+]

IC50 ([1]; Homo sapiens, single agent): 0.46 ± 0.01 µM
fold shift = IC50 (−OLAP)/IC50 (+OLAP) [1]: 1.7
SMILES: CNCc1ccc(-c2cc(-c3nc(-c4ccc(S(=O)(=O)C(C)C)cc4)cnc3N)on2)cc1 [Berzosertib, reference compound]
Log P [9]: 3.16

IC50 ([1]; Homo sapiens, single agent): 25.1 ± 2.4 µM
IC50 [7]: 22.5 ± 4.1 µM
SMILES: COc1cc(/C=C/C(=O)CC(=O)/C=C/c2ccc(O)c(OC)c2)ccc1O [Curcumin, reference compound]
inhibition of colony formation ([2]; MDA-MB-231R, compound 1 μM alongside Olaparib 0.1–100 μM, 72 h): retains the ability to inhibit colony formation in a similar manner to the parental MDA-MB-231 cells
day of complete disintegration of spheroids [11]: 6 days
Log P [9]: 4.12
hatching rate [4]: neither 10 nor Curcumin impacted the hatching rate significantly
day of complete disintegration of spheroids [12]: 9 days
Synergy with Olaparib (CI scores of less than 0.9 considered synergistic) [10]: synergistic over most of the tested concentrations
IC50 [8]: 37.4 ± 6 µM

IC50 ([1]; single agent): 11.6 ± 3.2 µM
fold shift = IC50 (−OLAP)/IC50 (+OLAP) [1]: 6.8
SMILES: Oc1ccc(-c2nc3c4ccc[n+]5c4c4c(ccc[n+]4[Ru-4]546([n+]5cccc7ccc8ccc[n+]4c8c75)[n+]4cccc5ccc7ccc[n+]6c7c54)c3[nH]2)cc1 [Compound 4, [Ru(phen)2(H-PIP)]^2+]
Synergy with Olaparib (CI scores of less than 0.9 considered synergistic) [10]: additive relationship with Olaparib

IC50 ([1]; Homo sapiens, single agent): > 100 µM
SMILES: O=c1c(O)c(-c2ccc(O)c(O)c2)oc2cc(O)cc(O)c12 [Quercetin, reference compound]

IC50 ([1]; Homo sapiens, single agent): 12.1 ± 3 µM
SMILES: O=c1[nH]cc(F)c(=O)[nH]1 [Fluorouracil, reference compound]

IC50 ([1]; single agent): 29.2 ± 3.7 µM
fold shift = IC50 (−OLAP)/IC50 (+OLAP) [1]: 3.7
SMILES: c1ccc(-c2nc3c4ccc[n+]5c4c4c(ccc[n+]4[Ru-4]546([n+]5cccc7ccc8ccc[n+]4c8c75)[n+]4cccc5ccc7ccc[n+]6c7c54)c3[nH]2)cc1 [Compound 3, [Ru(phen)2(PIP)]^2+]
Synergy with Olaparib (CI scores of less than 0.9 considered synergistic) [10]: additive relationship with Olaparib
